Where a name gives a salt, the structure may show the parent alone. One block for each compound: values may come before it.
Assays:
Balb/c mice = test: DSS-induced colitis model; type: in vivo; conditions: male Balb/c mice; 1-3% DSS for 5-7 days; 30 mg/kg orally once a day for 5-7 successive days
Text: Evaluation of Compounds in DSS-Induced Colitis Model
A 1-3% solution of dextran sulfate sodium (hereinafter abbreviated as DSS; ICN) in purified water (Otsuka Pharmaceutical) was fed freely to 6- to 7-week-old male Balb/c mice (Charles River Japan) for 5-7 days to induce colitis. Disease Activity Index (hereinafter abbreviated as DAI) scored based on fecal hardness, blood content in feces and body weight change, the number of neutrophils infiltrating the colon and the length of the colon were used as indexes to evaluate compounds. Each compound was suspended or dissolved in an aqueous solution containing 0.5% methyl cellulose (Wako), and orally administered at 30 mg/kg once a day, for 5-7 successive days.

[1] = test system: human peripheral blood neutrophils; test: Human peripheral blood neutrophil adhesion system (adhesion to immobilized HUVEC, PMA-stimulated); type: cell-based; conditions: 0.75 h, concentration inhibiting by 50% the PMA-stimulated increase in the number of adhered BCECF-AM labeled neutrophils on HUVEC immobilized plate, 45 minutes, 37° C.
Procedure: Evaluation of Compounds in Human Peripheral Blood Neutrophil Adhesion System
<Preparation of Human Peripheral Blood Neutrophils>
To a plastic centrifugation tube containing 100 units of heparin sodium (Shimizu Pharmaceutical) was added 25 ml of fresh blood sampled from a healthy human. After adding and mixing therewith 8 ml of physiological saline (Otsuka Pharmaceutical) containing 6% Dextran (Nacalai), the mixture was allowed to stand at room temperature for 45 minutes for sedimentation of the erythrocytes. The resultant supernatant was transferred to another plastic centrifugation tube and combined with an equivalent volume of phosphate-buffered saline (hereinafter abbreviated as PBS; Sigma), and then centrifuged at 1600 rpm for 7 minutes at room temperature. The obtained hematocyte fraction was suspended in 4 ml of PBS, and the suspension was superposed on 4 ml of Ficoll-Paque™ PLUS (Amersham Biosciences). The resultant bilayer liquid was centrifuged at 2000 rpm for 30 minutes at room temperature, after which the supernatant was removed and the precipitate was suspended in 10 ml of PBS and centrifuged at 1200 rpm for 7 minutes, and the supernatant was removed. The resulting precipitate was suspended in 0.5 ml of PBS again, and then 10 ml of distilled water (Otsuka Pharmaceutical) was added, 0.5 ml of an aqueous solution containing 3 M NaCl was immediately added to restore isotonicity, the mixture was centrifuged at 1200 rpm for 7 minutes, and the obtained precipitate was suspended in PBS containing 1 mg/ml bovine serum albumin (hereinafter abbreviated as BSA; Sigma) again and stored in ice until being used for the experiment.
<Fluorescent Labeling of Human Peripheral Blood Neutrophils>
The obtained neutrophils were suspended in PBS containing 1 mg/ml BSA at 2×10^7 cells/ml. BCECF-AM (Dojin) was added to a final concentration of 5 μM, and the mixture was incubated at 37° C. for 45 minutes. It was then rinsed twice with PBS containing 1 mg/ml BSA by centrifugation, suspended again in PBS containing 1 mg/ml BSA at 5×10^7 cells/ml, and stored in ice until use.
<Preparation of HUVEC Immobilized Plate>
Human umbilical vein endothelial cells (hereinafter abbreviated as HUVEC) were suspended in MCDB131 medium (Chlorella Industries) containing 10% fetal calf serum and 30 μg/ml endothelial cell growth supplement (Becton Dickinson Bioscience). The suspension was added at 7.5×10^3 cells/well to a 96-well plate (Iwaki) immobilized with type I collagen, and cultured for 3 days in a CO2 incubator (Hirasawa). Upon confirming confluency of the cells, the supernatant was discarded, the plate was rinsed twice with PBS, and then PBS containing 0.1% glutaraldehyde (Kanto Kagaku) was added at 100 μl/well and the HUVECs were immobilized for 5 minutes. The supernatant was discarded and the plate was washed twice with PBS, and then PBS was added at 100 μl/well and the mixture was stored at 4° C. until use.
To 6.5 ml of RPMI-1640 medium (Sigma) containing 1 mg/ml of BSA were added 0.5 ml of a suspension of BCECF-AM labeled neutrophils at 5×10^7/ml stored in ice, which was mixed, and the mixture was added at 80 μl/well to a HUVEC immobilized plate. To this plate were immediately added 10 μl/well of a solution of the compound diluted at different concentrations with RPMI-1640 containing 1 mg/ml BSA, and 10 μl/well of 100 nM phorbol myristate acetate (hereinafter abbreviated as PMA; Sigma) in RPMI-1640 containing 1 mg/ml BSA, and the mixture was incubated in a CO2 incubator at 37° C. for 45 minutes. The supernatant was removed from the plate, which was then washed several times with RPMI-1640 at 100 μl/well, and then PBS containing 0.1% NP-40 (Calbiochem) was added thereto at 100 μl/well and the fluorescent intensity was measured with and ARVO™SX 1420 multi label counter (Wallac) to determine the number of adhered cells. […]

Jurkat cells = test: Jurkat cell adhesion system (adhesion to immobilized human fibronectin, PMA-stimulated); type: cell-based; conditions: concentration inhibiting by 50% the PMA-stimulated increase in the number of adhered Jurkat cells on human fibronectin, 45-60 minutes, 37° C.
Procedure: Evaluation of Compounds in Jurkat Cell Adhesion System
<Immobilization of Human Fibronectin in 96-Well Plate>
Human fibronectin (Becton Dickinson Biosciences) was diluted with phosphate-buffered saline (hereinafter abbreviated as PBS; Sigma) to 0.1-0.01 μg/ml, and the diluted solution was added to a 96-well plate (Becton Dickinson) at 50 μl/well, and allowed to stand overnight at 4° C. On the following day, the supernatant was removed from the plate, and then PBS containing 1% bovine serum albumin (hereinafter abbreviated as BSA; Sigma) was added thereto at 100 μl/well and incubation was performed at 37° C. for 2 hours in a CO2 incubator (Hirasawa).
The supernatant was removed from each plate and Jurkat cells suspended in RPMI-1640 (Sigma) containing 1 mg/ml BSA were added at 80 μl/well for 2.5×10^5 cells/well. The compound diluted to different concentrations with RPMI-1640 containing 1 mg/ml BSA was immediately added at 10 μl/well, and then 100 nM phorbol myristate acetate (hereinafter abbreviated as PMA; Sigma) in RPMI-1640 containing 1 mg/ml BSA was added at 10 μl/well and the plate was incubated in a CO2 incubator at 37° C. for 45-60 minutes. The supernatant was removed from the plate and each well was washed several times with 100 μl/well of RPMI-1640, after which 50 mM citrate buffer (pH 5.0) containing 3.75 mM p-nitrophenol-N-acetyl-β-D-glucosaminide (Sigma) and 0.25% Triton X-100 (Sigma) were added at 60 μl/well, and the mixture was placed in a CO2 incubator and incubated at 37° C. for 45 minutes. After incubation, 50 mM glycine buffer (pH 10.4) containing 5 mM EDTA was added at 90 μl/well, and the absorbance at 405 nm was measured with an EL340 Automated Microplate Reader (BIO-TEK) to determine the adhered cell count. The concentration of each compound which inhibited the increase in the number of adhered cells by the PMA-stimulation by 50% was recorded as the IC50 (μM).

IC50 [1]: 17.9 µM
IC50 (Jurkat cells): 6.1 µM
SMILES: CCC(=O)CN1CCN(c2ccccc2C2CCC(C)(C)CC2)CC1.Cl [Example 17, 1-{4-[2-(4,4-Dimethylcyclohexyl)phenyl]piperazin-1-yl}butan-2-one hydrochloride]
improvement in comparison with the DSS control group (DAI, number of neutrophils infiltrating the colon, length of the colon) (Balb/c mice): particularly good improvement

IC50 [1]: 18.1 µM
IC50 (Jurkat cells): 2.2 µM
SMILES: CC1(C)C=C(c2ccccc2N2CCN(CC3CCOCC3)CC2)CC(C)(C)C1.Cl [Example 22, 1-(Tetrahydropyran-4-ylmethyl)-4-[2-(3,3,5,5-tetramethylcyclohex-1-enyl)phenyl]piperazine hydrochloride]
improvement in comparison with the DSS control group (DAI, number of neutrophils infiltrating the colon, length of the colon) (Balb/c mice): particularly good improvement

IC50 [1]: 16.4 µM
IC50 (Jurkat cells): 6.4 µM
SMILES: COc1ccc(N2CCN(CC3CCOCC3)CC2)c(C2CC(C)(C)CC(C)(C)C2)c1 [Example 85, 1-[4-Methoxy-2-(3,3,5,5-tetramethylcyclohexyl)phenyl]-4-(tetrahydropyran-4-ylmethyl)piperazine hydrochloride]

IC50 [1]: 8.5 µM
IC50 (Jurkat cells): 3.1 µM
SMILES: CCCN1CCN(c2ccc(N3CCOCC3)cc2C2=CC(C)(C)CC(C)(C)C2)CC1.Cl [Example 28, 4-[4-(4-Propylpiperazin-1-yl)-3-(3,3,5,5-tetramethylcyclohex-1-enyl)phenyl]morpholine hydrochloride]
improvement in comparison with the DSS control group (DAI, number of neutrophils infiltrating the colon, length of the colon) (Balb/c mice): particularly good improvement

IC50 [1]: 9.1 µM
IC50 (Jurkat cells): 4.5 µM
SMILES: CCCCCN1CCN(c2cc(OC)ccc2C2CCC(C)(C)CC2)CC1.Cl [Example 1, 1-[2-(4,4-Dimethylcyclohexyl)-5-methoxyphenyl]-4-pentylpiperazine hydrochloride]
improvement in comparison with the DSS control group (DAI, number of neutrophils infiltrating the colon, length of the colon) (Balb/c mice): particularly good improvement

IC50 [1]: 9.4 µM
IC50 (Jurkat cells): 3.6 µM
SMILES: CC1(C)CCC(c2ccccc2N2CCN(Cc3ccoc3)CC2)CC1 [Example 69, 1-[2-(4,4-Dimethylcyclohexyl)phenyl]-4-furan-3-ylmethylpiperazine hydrochloride]

IC50 [1]: 9.5 µM
IC50 (Jurkat cells): 4.5 µM
SMILES: CCCN1CCN(c2ccccc2C2CC(C)(C)CC(C)(C)C2)CC1.Cl [Example 31, 1-Propyl-4-[2-(3,3,5,5-tetramethylcyclohexyl)phenyl]piperazine hydrochloride]
improvement in comparison with the DSS control group (DAI, number of neutrophils infiltrating the colon, length of the colon) (Balb/c mice): particularly good improvement

More lines, now with the values behind:

SMILES: CCCCN1CCN(c2ccc(N3CCOCC3)cc2C2=CCC(C(C)(C)C)CC2)CC1.Cl (racemic) [Example 18, 4-[3-(4-t-Butylcyclohex-1-enyl)-4-(4-butylpiperazin-1-yl)phenyl]morpholine hydrochloride]
improvement in comparison with the DSS control group (DAI, number of neutrophils infiltrating the colon, length of the colon) (Balb/c mice): particularly good improvement
IC50 [1]: 12.1 µM
IC50 (Jurkat cells): 2.6 µM

SMILES: CCCCN1CCC(c2ccccc2C2CC(C)(C)CC(C)(C)C2)CC1 [Example 103, 1-Butyl-4-[2-(3,3,5,5-tetramethylcyclohexyl)phenyl]piperidine hydrochloride]
IC50 [1]: 19.3 µM
IC50 (Jurkat cells): 4.5 µM

SMILES: CCCCN1CCN(c2ccccc2/C2=C/CCCCCC2)CC1 [Example 47, 1-Butyl-4-(2-cyclooct-1-enylphenyl)piperazine hydrochloride]
IC50 ([1]; HUVEC): 11.8 µM
IC50 (Jurkat cells; Homo sapiens, Jurkat): 5 µM

SMILES: CC1(C)CC(c2ccccc2N2CCN(CC3CC3)CC2)CC(C)(C)C1 [Example 117, 1-Cyclopropylmethyl-4-[2-(3,3,5,5-tetramethylcyclohexyl)phenyl]piperazine methanesulfonate]
IC50 [1]: 7.1 µM
IC50 (Jurkat cells): 4.7 µM

SMILES: CC(C)CN1CCN(c2ccccc2C2=CCC3(CC2)CC3)CC1.Cl [Example 34, 1-Isobutyl-4-(2-spiro[2.5]oct-5-en-6-ylphenyl)piperazine hydrochloride]
improvement in comparison with the DSS control group (DAI, number of neutrophils infiltrating the colon, length of the colon) (Balb/c mice): particularly good improvement

SMILES: CCC(=O)CN1CCN(c2ccc(N3CCOCC3)cc2C2=CCC(CC)(CC)CC2)CC1.Cl [Example 30, 1-{4-[2-(4,4-Diethylcyclohex-1-enyl)-4-morpholin-4-ylphenyl]piperazin-1-yl}butan-2-one hydrochloride]
improvement in comparison with the DSS control group (DAI, number of neutrophils infiltrating the colon, length of the colon) (Balb/c mice): particularly good improvement
IC50 [1]: 16.9 µM
IC50 (Jurkat cells): 5.5 µM

SMILES: COCCN1CCN(c2ccc(N3CCC(OC)CC3)cc2C2=CCC3(CCCCC3)CC2)CC1 [Example 48, 1-(2-Methoxyethyl)-4-[4-(4-methoxypiperidin-1-yl)-2-spiro[5.5]undec-2-en-3-ylphenyl]piperazine hydrochloride]
IC50 [1]: 4.9 µM
IC50 (Jurkat cells): 7.9 µM

SMILES: COC1CCN(c2ccc(N3CCN(CC4CC4)CC3)c(C3=CCC(C(C)(C)C)CC3)c2)CC1.Cl (racemic) [Example 20, 1-[2-(4-t-Butylcyclohex-1-enyl)-4-(4-methoxypiperidin-1-yl)phenyl]-4-cyclopropylmethylpiperazine hydrochloride]
improvement in comparison with the DSS control group (DAI, number of neutrophils infiltrating the colon, length of the colon) (Balb/c mice): particularly good improvement
IC50 [1]: 6.1 µM
IC50 (Jurkat cells): 7.7 µM

— patent US20060276465A1, “1,2-di(cyclic) substituted benzene compounds” (Eisai R&D Management Co., Ltd., priority 2003, published 2006)
